Experimental data: publication PMC5843908, “Detection of PRMT1 inhibitors with stopped flow fluorescence” (Signal Transduction and Targeted Therapy, 2018)
Where two headings read alike, the source gives them in different places.

Columns and labels:
PRMT1 [1] = conditions: read-out: Km of SAM on H4FL; cited from earlier work
PRMT1 [2] = biological target: T1, PRMT1 (Homo sapiens, UniProt Q99873)
Excerpt: We plotted the values of a · k1 or −b · k2 against the SAM concentration (Fig. 3c, d).
(§1) In a stopped flow fluorescence assay, the binding of H4FL to PRMT1 (or the PRMT1—cofactor complex) quenches the peptide fluorescence, while release of the peptide restores the fluorescence. […] The widths of the entrance and exit slits of the monochromator were set to 0.5 mm. An equal volume of samples from two syringes was driven into the observation cell for mixing measurements. The H4FL concentration in all experiments was 0.4 μM. […] The fluorescent signal was recorded for 900 seconds, with 10,000 data points in total. Data from four to six drives were collected and averaged for each curve.
After averaging the shot data, the association time courses were fitted to a double-exponential function (equation 2) using GraphPad Prism (CA, USA). […] F is the fluorescence intensity at time t, k1, and k2 are the rate constants for Phase I and Phase II, a is the amplitude of the fluorescence change for k1, and b is the amplitude of the fluorescence change for k2. Simulation curves based on the values of a, b, k1, and k2 at fixed c = 1 were produced using Matlab.

PRMT1 [3] = biological target: T1, PRMT1; test: Stopped flow fluorescence assay of PRMT1 inhibition ([PRMT1] 0.2 µM, [SAM] 3.5 µM, [H4FL] 0.4 µM); type: biochemical;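 also: Stopped-flow traces of fluorescent H4FL peptide quenched on binding PRMT1 and restored on release, recorded 900 s, averaged over repeated drives and fit to a double-exponential model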
Excerpt: To obtain the IC50 of a specific inhibitor, the relative activities of the enzyme in presence of different concentrations of the inhibitor are required (equation 1).[37] […] By adding different concentrations of the inhibitor to the reaction mixture, the relative activity of the enzyme can be obtained by normalizing K to the reaction rate without the inhibitor, and then calculate the IC50 value using equation 1. In our stopped flow fluorescence assay, the reaction rate of Phase I and Phase II can be obtained by approximating and deriving the double-exponential equation (equation 2). In Phase I, during a very short period of time (where t is small), the curve is nearly linear, and the exponential equation can be approximately described as F1 = a · (−k1) · t. Therefore, the derivation of F1 equals –k1∙a, which is the slope of Phase I. Similarly, the curve of Phase II at early stage can be approximately described as F2 = b · (−k2) · t. This derivation of F2 equals –k2∙b, which is the slope of Phase II. The slopes at various inhibitor concentrations, normalized to the slope in the absence of inhibitor, can be used to obtain the corresponding relative enzyme activity from which the potency value (IC50) of the inhibitor can be calculated with equation 1.
as §1
After averaging the shot data, the association time courses were fitted to a double-exponential function (equation 2) using GraphPad Prism (CA, USA). […] F is the fluorescence intensity at time t, k1, and k2 are the rate constants for Phase I and Phase II, a is the amplitude of the fluorescence change for k1, and b is the amplitude of the fluorescence change for k2. Simulation curves based on the values of a, b, k1, and k2 at fixed c = 1 were produced using Matlab. The IC50 value of inhibitors is determined by equation 1 using GraphPad Prism (CA, USA).

PRMT1 [4] = tested on: PRMT1; parameters: method as in earlier work; conditions: binary binding to PRMT1; ref 2 (supplement; Feng et al. 2011); cited from earlier work

T1 sequence (Q99873 29-371): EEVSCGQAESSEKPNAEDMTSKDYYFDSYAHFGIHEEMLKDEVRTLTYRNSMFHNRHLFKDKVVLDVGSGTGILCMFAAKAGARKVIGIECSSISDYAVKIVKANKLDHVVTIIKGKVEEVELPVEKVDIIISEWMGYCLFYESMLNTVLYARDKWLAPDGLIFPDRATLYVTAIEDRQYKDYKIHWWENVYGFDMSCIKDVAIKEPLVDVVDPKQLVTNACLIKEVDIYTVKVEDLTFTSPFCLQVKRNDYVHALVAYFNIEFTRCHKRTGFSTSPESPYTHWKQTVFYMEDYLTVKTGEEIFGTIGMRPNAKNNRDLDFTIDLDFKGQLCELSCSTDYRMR

C[S+](CC[C@H](N)C(=O)[O-])C[C@H]1O[C@@H](n2cnc3c(N)ncnc32)[C@H](O)[C@@H]1O (stereo partly drawn) [SAM, S-adenosylmethionine]
Km (PRMT1 [1]): 3.1 ± 0.46 µM
-b·k2 (slope of Phase II) (PRMT1 [2]; [SAM] 1.5 µM): 0.0002 ± 9.72e-07 s⁻¹
a (amplitude, Phase I) (PRMT1 [2]; [SAM] 1.5 µM): 0.0482 ± 2.31E-04
a·k1 (slope of Phase I) (PRMT1 [2]; [SAM] 1.5 µM): 0.00212 ± 2.2e-05 s⁻¹
b (amplitude, Phase II) (PRMT1 [2]; [SAM] 1.5 µM): -0.07363 ± 8.97E-05
k1 (rate constant, Phase I) (PRMT1 [2]; [SAM] 1.5 µM): 0.04402 ± 4.06E-04 s^-1
k2 (rate constant, Phase II) (PRMT1 [2]; [SAM] 1.5 µM): 0.002713 ± 1.28E-05 s^-1
-b·k2 (slope of Phase II) (PRMT1 [2]; [SAM] 3.5 µM): 0.000878 ± 2.58e-06 s⁻¹
a (amplitude, Phase I) (PRMT1 [2]; [SAM] 3.5 µM): 0.0846 ± 3.83E-04
a·k1 (slope of Phase I) (PRMT1 [2]; [SAM] 3.5 µM): 0.00678 ± 6.58e-05 s⁻¹
b (amplitude, Phase II) (PRMT1 [2]; [SAM] 3.5 µM): -0.1161 ± 2.14E-04
k1 (rate constant, Phase I) (PRMT1 [2]; [SAM] 3.5 µM): 0.08016 ± 6.88E-04 s^-1
k2 (rate constant, Phase II) (PRMT1 [2]; [SAM] 3.5 µM): 0.007565 ± 1.73E-05 s^-1
-b·k2 (slope of Phase II) (PRMT1 [2]; [SAM] 7.5 µM): 0.00141 ± 4.46e-06 s⁻¹
a (amplitude, Phase I) (PRMT1 [2]; [SAM] 7.5 µM): 0.1529 ± 1.79E-03
a·k1 (slope of Phase I) (PRMT1 [2]; [SAM] 7.5 µM): 0.0272 ± 0.000547 s⁻¹
b (amplitude, Phase II) (PRMT1 [2]; [SAM] 7.5 µM): -0.2054 ± 3.40E-04
k1 (rate constant, Phase I) (PRMT1 [2]; [SAM] 7.5 µM): 0.1778 ± 2.91E-03 s^-1
k2 (rate constant, Phase II) (PRMT1 [2]; [SAM] 7.5 µM): 0.006848 ± 1.85E-05 s^-1
-b·k2 (slope of Phase II) (PRMT1 [2]; [SAM] 15 µM): 0.00313 ± 1.01e-05 s⁻¹
a (amplitude, Phase I) (PRMT1 [2]; [SAM] 15 µM): 0.1992 ± 2.65E-03
a·k1 (slope of Phase I) (PRMT1 [2]; [SAM] 15 µM): 0.0493 ± 0.00109 s⁻¹
b (amplitude, Phase II) (PRMT1 [2]; [SAM] 15 µM): -0.2664 ± 5.21E-04
k1 (rate constant, Phase I) (PRMT1 [2]; [SAM] 15 µM): 0.2476 ± 4.40E-03 s^-1
k2 (rate constant, Phase II) (PRMT1 [2]; [SAM] 15 µM): 0.01175 ± 3.03E-05 s^-1

Nc1ncnc2c1ncn2[C@@H]1O[C@H](C[C@@H](N)CC[C@H](N)C(=O)O)[C@@H](O)[C@H]1O [sinefungin]
-b·k2 (slope of Phase II) (PRMT1 [3]; [sinefungin] 0.0375 µM): 0.000574 ± 1.23e-06 s⁻¹
a (amplitude, Phase I) (PRMT1 [3]; [sinefungin] 0.0375 µM): 0.1645 ± 3.77E-04
a·k1 (slope of Phase I) (PRMT1 [3]; [sinefungin] 0.0375 µM): 0.0107 ± 4.96e-05 s⁻¹
b (amplitude, Phase II) (PRMT1 [3]; [sinefungin] 0.0375 µM): -0.1699 ± 1.17E-04
k1 (rate constant, Phase I) (PRMT1 [3]; [sinefungin] 0.0375 µM): 0.0653 ± 2.62E-04 s^-1
k2 (rate constant, Phase II) (PRMT1 [3]; [sinefungin] 0.0375 µM): 0.00338 ± 6.86e-06 s⁻¹
-b·k2 (slope of Phase II) (PRMT1 [3]; [sinefungin] 0.075 µM): 0.00042 ± 1.32e-06 s⁻¹
a (amplitude, Phase I) (PRMT1 [3]; [sinefungin] 0.075 µM): 0.2064 ± 3.83E-04
a·k1 (slope of Phase I) (PRMT1 [3]; [sinefungin] 0.075 µM): 0.0115 ± 4.27e-05 s⁻¹
b (amplitude, Phase II) (PRMT1 [3]; [sinefungin] 0.075 µM): -0.2170 ± 1.94E-04
k1 (rate constant, Phase I) (PRMT1 [3]; [sinefungin] 0.075 µM): 0.05564 ± 1.79E-04 s^-1
k2 (rate constant, Phase II) (PRMT1 [3]; [sinefungin] 0.075 µM): 0.00194 ± 5.83e-06 s⁻¹
-b·k2 (slope of Phase II) (PRMT1 [3]; [sinefungin] 0.15 µM): 0.000351 ± 1.48e-06 s⁻¹
a (amplitude, Phase I) (PRMT1 [3]; [sinefungin] 0.15 µM): 0.2215 ± 4.17E-04
a·k1 (slope of Phase I) (PRMT1 [3]; [sinefungin] 0.15 µM): 0.0126 ± 4.69e-05 s⁻¹
b (amplitude, Phase II) (PRMT1 [3]; [sinefungin] 0.15 µM): -0.2165 ± 3.17E-04
k1 (rate constant, Phase I) (PRMT1 [3]; [sinefungin] 0.15 µM): 0.05703 ± 1.83E-04 s^-1
k2 (rate constant, Phase II) (PRMT1 [3]; [sinefungin] 0.15 µM): 0.00162 ± 6.43e-06 s⁻¹
-b·k2 (slope of Phase II) (PRMT1 [3]; [sinefungin] 0.3 µM): 0.00021 ± 1.94e-06 s⁻¹
a (amplitude, Phase I) (PRMT1 [3]; [sinefungin] 0.3 µM): 0.2200 ± 4.51E-04
a·k1 (slope of Phase I) (PRMT1 [3]; [sinefungin] 0.3 µM): 0.0118 ± 4.79e-05 s⁻¹
b (amplitude, Phase II) (PRMT1 [3]; [sinefungin] 0.3 µM): -0.1711 ± 6.89E-04
k1 (rate constant, Phase I) (PRMT1 [3]; [sinefungin] 0.3 µM): 0.05374 ± 1.88E-04 s^-1
k2 (rate constant, Phase II) (PRMT1 [3]; [sinefungin] 0.3 µM): 0.00123 ± 1.02e-05 s⁻¹
-b·k2 (slope of Phase II) (PRMT1 [3]; [sinefungin] 0.75 µM): 0.000123 ± 2.15e-06 s⁻¹
a (amplitude, Phase I) (PRMT1 [3]; [sinefungin] 0.75 µM): 0.2668 ± 5.02E-04
a·k1 (slope of Phase I) (PRMT1 [3]; [sinefungin] 0.75 µM): 0.0149 ± 5.48e-05 s⁻¹
b (amplitude, Phase II) (PRMT1 [3]; [sinefungin] 0.75 µM): -0.1045 ± 8.19E-04
k1 (rate constant, Phase I) (PRMT1 [3]; [sinefungin] 0.75 µM): 0.05576 ± 1.77E-04 s^-1
k2 (rate constant, Phase II) (PRMT1 [3]; [sinefungin] 0.75 µM): 0.00118 ± 1.83e-05 s⁻¹
-b·k2 (slope of Phase II) (PRMT1 [3]; [sinefungin] 1.5 µM): 7.22e-05 ± 5.34e-06 s⁻¹
a (amplitude, Phase I) (PRMT1 [3]; [sinefungin] 1.5 µM): 0.287 ± 5.51E-04
a·k1 (slope of Phase I) (PRMT1 [3]; [sinefungin] 1.5 µM): 0.0164 ± 6.01e-05 s⁻¹
b (amplitude, Phase II) (PRMT1 [3]; [sinefungin] 1.5 µM): -0.1776 ± 8.27E-03
k1 (rate constant, Phase I) (PRMT1 [3]; [sinefungin] 1.5 µM): 0.05722 ± 1.79E-04 s^-1
k2 (rate constant, Phase II) (PRMT1 [3]; [sinefungin] 1.5 µM): 0.000406 ± 2.33e-05 s⁻¹
-b·k2 (slope of Phase II) (PRMT1 [3]; [sinefungin] 3 µM): 4.12e-05 ± 0.000152 s⁻¹
a (amplitude, Phase I) (PRMT1 [3]; [sinefungin] 3 µM): 0.2925 ± 5.44E-04
a·k1 (slope of Phase I) (PRMT1 [3]; [sinefungin] 3 µM): 0.0166 ± 5.83e-05 s⁻¹
b (amplitude, Phase II) (PRMT1 [3]; [sinefungin] 3 µM): -4.517
k1 (rate constant, Phase I) (PRMT1 [3]; [sinefungin] 3 µM): 0.05659 ± 1.69E-04 s^-1
k2 (rate constant, Phase II) (PRMT1 [3]; [sinefungin] 3 µM): 9.13e-06 ± 3.36e-05 s⁻¹
-b·k2 (slope of Phase II) (PRMT1 [3]; [sinefungin] 7.5 µM): 1.42e-05 ± 0.000372 s⁻¹
a (amplitude, Phase I) (PRMT1 [3]; [sinefungin] 7.5 µM): 0.2481 ± 5.15E-04
a·k1 (slope of Phase I) (PRMT1 [3]; [sinefungin] 7.5 µM): 0.0148 ± 5.77e-05 s⁻¹
b (amplitude, Phase II) (PRMT1 [3]; [sinefungin] 7.5 µM): -4.223
k1 (rate constant, Phase I) (PRMT1 [3]; [sinefungin] 7.5 µM): 0.05968 ± 1.97E-04 s^-1
k2 (rate constant, Phase II) (PRMT1 [3]; [sinefungin] 7.5 µM): 3.37e-06 ± 8.82e-05 s⁻¹
-b·k2 (slope of Phase II) (PRMT1 [3]; [sinefungin] 15 µM): 2.66e-06 ± 0.000274 s⁻¹
a (amplitude, Phase I) (PRMT1 [3]; [sinefungin] 15 µM): 0.2592 ± 5.43E-04
a·k1 (slope of Phase I) (PRMT1 [3]; [sinefungin] 15 µM): 0.0145 ± 5.77e-05 s⁻¹
b (amplitude, Phase II) (PRMT1 [3]; [sinefungin] 15 µM): -0.5239
k1 (rate constant, Phase I) (PRMT1 [3]; [sinefungin] 15 µM): 0.05599 ± 1.89E-04 s^-1
k2 (rate constant, Phase II) (PRMT1 [3]; [sinefungin] 15 µM): 5.08e-06 ± 0.000523 s⁻¹

acetyl -SGRme2aGKGGKGK(FL)GKGGAKRHRK [H4FLme2]
koff (PRMT1 [4]): 319 s⁻¹
kon (PRMT1 [4]): 26 µM⁻¹ s⁻¹
